Tests used:
[1] = 100 patients, mild to moderate AD, doxycycline and rifampin together; cited from earlier work
[2] = test system: gut bacteria; conditions: Norfloxacin treatment; cited from earlier work
[3] = test system: intestinal transit across the proximal gut; experiment: Intestinal transit in dogs with duodenal and midgut fistulas; format: in vivo; conditions: last 30 min of 90-min perfusion, mean±SE, buffer control 53.77±5.96%
Experimental: The inventor determined the effect of hydrogen sulfide on intestinal transit. Five dogs were equipped with duodenal and midgut fistulas. With occluding Foley catheters in the distal limb of the 2 fistulas, the small intestine was compartmentalized into the proximal and distal ½ of the gut. The proximal gut was perfused with pH 7.0 phosphate buffer with 0 or 1 mM NaHS (a donor of H2S) at 2 ml/min while the distal gut was perfused with pH 7.0 phosphate buffer with 0 or 60 mM oleate at 2 ml/min for 90 minutes. 60 mM oleate was used to trigger the ileal brake response to slow intestinal transit. Intestinal transit across the proximal gut was measured by the cumulative % recovery of a radioactive marker out of the midgut fistula during the last 30 min of the 90-min perfusion (data=mean±SE).

[4] = rat model of HPS, chronic bile duct ligation; cited from earlier work
[5] = single patient with HPS, enhanced oxygenation; cited from earlier work
[6] = inhaled; cited from earlier work
[7] = test system: SIBO; conditions: about 400 mg TID for about 10 days; cited from earlier work

CO[C@H]1/C=C/O[C@@]2(C)Oc3c(C)c(O)c4c(O)c(c(/C=N/N5CCN(C)CC5)c(O)c4c3C2=O)NC(=O)/C(C)=C\C=C\[C@H](C)[C@H](O)[C@@H](C)[C@@H](O)[C@@H](C)[C@H](OC(C)=O)[C@@H]1C [rifampin]
cognitive worsening [1]: reduce cognitive worsening

CCn1cc(C(=O)O)c(=O)c2cc(F)c(N3CCNCC3)cc21 [Norfloxacin]
iNOS expression [2]: normalized | severity of intrapulmonary vascular dilatation, reduction [2]: about ½

CCCCCCCC/C=C\CCCCCCCC(=O)O [fat, oleate]
Intestinal transit: cumulative % recovery of a radioactive marker out of the midgut fistula ([3]; fat (60 mM oleate) in distal 1/2 of gut, ileal brake): 16.00±3.92%

COC(=O)[C@@H](N)CCCNC(=N)N[N+](=O)[O-] [L-NAME, nomega-nitro-L-arginine methylester]
hypoxia [4]: improved but did not correct hypoxia | extra walking distance [5]: 92 M

S [Hydrogen sulfide]
Intestinal transit: cumulative % recovery of a radioactive marker out of the midgut fistula ([3]; H2S perfused in distal compartment): 60.72±8.97% | Intestinal transit: cumulative % recovery of a radioactive marker out of the midgut fistula ([3]; H2S perfused in proximal compartment (1 mM NaHS, pH 7.0 phosphate buffer, 2 ml/min)): 37.78±3.80% | level that can be fatal (respiratory failure and pulmonary edema) [6]: > 600 ppm

CO[C@H]1/C=C/O[C@@]2(C)Oc3c(C)c(O)c4c(O)c(c5c(nc6cc(C)ccn65)c4c3C2=O)NC(=O)/C(C)=C\C=C\[C@H](C)[C@H](O)[C@@H](C)[C@@H](O)[C@@H](C)[C@H](OC(C)=O)[C@@H]1C [rifaximin]
efficacy in achieving successful partial eradication of SIBO [7]: 60-70%

— patent publication US20090233888A1, “TREATMENT OF DISEASE CONDITIONS THROUGH MODULATION OF HYDROGEN SULFIDE PRODUCED BY SMALL INTESTINAL BACTERIAL OVERGROWTH” (priority 2005, published 2009)
